The values below come from patent US9185914B2, “Substituted 5-(cyclohex-2-en-1-yl)-penta-2,4-dienes and 5-(cyclohex-2-en-1-yl)-pent-2-en-4-ines as active agents against abiotic stress in plants” (BAYER INTELLECTUAL PROPERTY GMBH, priority 2011, dated 2015).

Holding throughout (assay type): in vivo
Common to all, as to conditions: mean of three results

One experiment deals with Brassica napus. The experiment in a line: Drought stress test, spray application to greenhouse plants (Brassica napus). As to the method:
(§1) Seeds of monocotyledonous and dicotyledonous crop plants were laid out in sandy loam in wood-fiber pots, covered with soil and cultivated in a greenhouse under good growth conditions. The test plants were treated at the early leaf stage (BBCH10-BBCH13). To ensure uniform water supply before commencement of stress, the potted plants were supplied with the maximum amount of water immediately beforehand by dam irrigation and, after application, transferred into plastic inserts in order to prevent subsequent, excessively rapid drying. The compounds according to the invention, formulated in the form of wettable powders (WP), wettable granules (WG), suspension concentrates (SC) or emulsion concentrates (EC), were sprayed onto the green parts of the plants as an aqueous suspension at an equivalent water application rate of 600 l/ha with addition of 0.2% wetting agent (agrotin). Substance application is followed immediately by stress treatment of the plants (cold or drought stress). For cold stress treatment, the plants were kept under the following controlled conditions: • “day”: 12 hours with illumination at 8° C. • “night”: 12 hours without illumination at 1° C.
(§2) Drought stress was induced by gradual drying out under the following conditions: • “day”: 14 hours with illumination at 26° C. • “night”: 10 hours without illumination at 18° C.
(§3) The duration of the respective stress phases was guided mainly by the state of the untreated (=treated with blank formulation but without test compound), stressed control plants and thus varied from crop to crop. It was ended (by re-irrigating or transfer to a greenhouse with good growth conditions) as soon as irreversible damage was observed on the untreated, stressed control plants. In the case of dicotyledonous crops, for example oilseed rape and soybeans, the duration of the drought stress phase varied between 3 and 5 days; in the case of monocotyledonous crops, for example wheat, barley or corn, it varied between 6 and 10 days. The duration of the cold stress phase varied between 12 and 14 days.
(§4) The end of the stress phase was followed by an approx. 5-7-day recovery phase, during which the plants were once again kept under good growth conditions in a greenhouse. In order to rule out any influence of the effects observed by any fungicidal action of the test compounds, it was additionally ensured that the tests proceeded without fungal infection and without infection pressure.
(§5) After the recovery phase had ended, the intensities of damage were rated visually in comparison to untreated, unstressed controls of the same age (in the case of drought stress) or the same growth stage (in the case of cold stress). The intensity of damage was first recorded as a percentage (100%=plants have died, 0%=like control plants). These values were then used to calculate the efficacy of the test compounds (=percentage reduction in the intensity of damage as a result of substance application) by the following formula:
(§6) [formula] EF: efficacy (%) DVus: damage value of the untreated, stressed control DVts: damage value of the plants treated with test compound
(§7) The tables below list mean values in each case from three results of the same test.
(§8) Efficacies of selected compounds of the formula (I) under drought stress: […]

A further experiment has as its system Triticum aestivum. Put plainly: Drought stress test, spray application to greenhouse plants (Triticum aestivum). As to the method: as §1, §2, §3, §4, §5, §6, §7, §8
A further experiment deals with Zea mays. Put plainly: Drought stress test, spray application to greenhouse plants (Zea mays). The protocol:
as §1, §2, §3, §4, §5, §6, §7, §8

On to `CCC/C(C#CC1(O)C(C)=CC(=O)CC1(C)C)=C/C(=O)OCC` (centres unmarked) [I.1-2, Ethyl (2Z)-3-[(1-hydroxy-2,6,6-trimethyl-4-oxocyclohex-2-en-1-yl)ethynyl]hex-2-enoate], for which, in the experiment on Brassica napus (dosage 250 g/ha), the “EF (BRSNS), efficacy = percentage reduction in the intensity of damage” value is reported as greater than 5%. Also, in the experiment with Triticum aestivum (dosage 250 g/ha), the “EF (TRZAS), efficacy = percentage reduction in the intensity of damage” value is reported as greater than 5%.
Take `CCCC(=C/C(=O)OCC)/C=C/C1(O)C(C)=CC(=O)CC1(C)C` (centres unmarked) [I.1-4, Ethyl (2Z)-3-[(E)-2-(1-hydroxy-2,6,6-trimethyl-4-oxocyclohex-2-en-1-yl)vinyl]hex-2-enoate]: the “EF (BRSNS), efficacy = percentage reduction in the intensity of damage” value in the experiment with Brassica napus (dosage 250 g/ha) is on record as greater than 5%. Also, the “EF (TRZAS), efficacy = percentage reduction in the intensity of damage” value in the experiment with Triticum aestivum (dosage 250 g/ha) was greater than 5%.
Turning to `CCOC(=O)C=C(C#CC1(O)C(C)=CC(=O)CC1(C)C)CC` (centres unmarked) [I.1-8], the “EF (BRSNS), efficacy = percentage reduction in the intensity of damage” value with Brassica napus (dosage 250 g/ha) is on record as greater than 5%. Also, the “EF (TRZAS), efficacy = percentage reduction in the intensity of damage” value in the experiment on Triticum aestivum (dosage 250 g/ha) is on record as greater than 5%.
Consider `CCOC(=O)C=C(C=CC1(O)C(C)=CC(=O)CC1(C)C)CC` (centres unmarked) [I.1-10], for which the “EF (BRSNS), efficacy = percentage reduction in the intensity of damage” value in the experiment with Brassica napus (dosage 250 g/ha) is greater than 5%. Moreover, the “EF (TRZAS), efficacy = percentage reduction in the intensity of damage” value with Triticum aestivum (dosage 250 g/ha) is greater than 5%. For the same molecule, in the experiment on Zea mays (dosage 250 g/ha), the “EF (ZEAMX), efficacy = percentage reduction in the intensity of damage” value was greater than 5%.
On to `CCOC(=O)/C=C(\C#CC1(O)C(C)=CC(=O)CC1(C)C)C(F)(F)F` (centres unmarked) [I.1-14, Ethyl (2E)-5-(1-hydroxy-2,6,6-trimethyl-4-oxocyclohex-2-en-1-yl)-3-(trifluoromethyl)pent-2-en-4-ynoate], for which the “EF (ZEAMX), efficacy = percentage reduction in the intensity of damage” value in the experiment with Zea mays (dosage 25 g/ha) is reported as greater than 5%.
With `CCOC(=O)/C=C(\C=C\C1(O)C(C)=CC(=O)CC1(C)C)C(F)(F)F` (centres unmarked) [I.1-16, Ethyl (2E,4E)-5-(1-hydroxy-2,6,6-trimethyl-4-oxocyclohex-2-en-1-yl)-3-(trifluoromethyl)penta-2,4-dienoate], the “EF (BRSNS), efficacy = percentage reduction in the intensity of damage” value in the experiment on Brassica napus (dosage 250 g/ha) was greater than 5%. The “EF (TRZAS), efficacy = percentage reduction in the intensity of damage” value in the experiment on Triticum aestivum (dosage 250 g/ha) is recorded as greater than 5%.
As for `CCC(C=CC1(O)C(C)=CC(=O)CC1(C)C)=CC(=O)O` (centres unmarked) [I.1-20], the “EF (BRSNS), efficacy = percentage reduction in the intensity of damage” value with Brassica napus (dosage 250 g/ha) is listed as greater than 5%. In addition, the “EF (TRZAS), efficacy = percentage reduction in the intensity of damage” value in the experiment on Triticum aestivum (dosage 250 g/ha) is greater than 5%. For the same molecule, the “EF (ZEAMX), efficacy = percentage reduction in the intensity of damage” value with Zea mays (dosage 250 g/ha) is greater than 5%.
`CC1=CC(=O)CC(C)(C)C1(O)C#C/C(=C\C(=O)O)C(F)(F)F` (centres unmarked) [I.1-23, (2E)-5-(1-Hydroxy-2,6,6-trimethyl-4-oxocyclohex-2-en-1-yl)-3-(trifluoromethyl)pent-2-en-4-ynoic acid]: the “EF (BRSNS), efficacy = percentage reduction in the intensity of damage” value in the experiment with Brassica napus (dosage 250 g/ha) is reported as greater than 5%. In the experiment on Triticum aestivum (dosage 250 g/ha), the “EF (TRZAS), efficacy = percentage reduction in the intensity of damage” value is listed as greater than 5%. Moreover, the “EF (ZEAMX), efficacy = percentage reduction in the intensity of damage” value in the experiment on Zea mays (dosage 250 g/ha) is greater than 5%.
As for `CC1=CC(=O)CC(C)(C)C1(O)C=CC(=CC(=O)O)C1CC1` (centres unmarked) [I.1-46], in the experiment with Brassica napus (dosage 250 g/ha), the “EF (BRSNS), efficacy = percentage reduction in the intensity of damage” value was greater than 5%. Further, the “EF (TRZAS), efficacy = percentage reduction in the intensity of damage” value with Triticum aestivum (dosage 250 g/ha) is greater than 5%. Moreover, the “EF (ZEAMX), efficacy = percentage reduction in the intensity of damage” value with Zea mays (dosage 250 g/ha) is recorded as greater than 5%.
With `CCCCC(C#CC1(O)C(C)=CC(=O)CC1(C)C)=CC(=O)OCC` (centres unmarked) [I.1-60], in the experiment with Brassica napus (dosage 250 g/ha), the “EF (BRSNS), efficacy = percentage reduction in the intensity of damage” value was greater than 5%. Also, the “EF (TRZAS), efficacy = percentage reduction in the intensity of damage” value with Triticum aestivum (dosage 250 g/ha) was greater than 5%.
`CCCCCC(C=CC1(O)C(C)=CC(=O)CC1(C)C)=CC(=O)OCC` (centres unmarked) [I.1-68]: in the experiment on Brassica napus (dosage 250 g/ha), the “EF (BRSNS), efficacy = percentage reduction in the intensity of damage” value was greater than 5%.
On the same count and under the same terms, the value for `CCCCCCC(C#CC1(O)C(C)=CC(=O)CC1(C)C)=CC(=O)OCC` (centres unmarked) [I.1-72] was greater than 5%.
As to `CCCCCCC(C=CC1(O)C(C)=CC(=O)CC1(C)C)=CC(=O)OCC` (centres unmarked) [I.1-74], the “EF (BRSNS), efficacy = percentage reduction in the intensity of damage” value in the experiment on Brassica napus (dosage 250 g/ha) is listed as greater than 5%.
For the molecule `CCOC(=O)C=C(C#CC1(O)C(C)=CC(=O)CC1(C)C)C(C)C` (centres unmarked) [I.1-84], the “EF (ZEAMX), efficacy = percentage reduction in the intensity of damage” value in the experiment with Zea mays (dosage 250 g/ha) was greater than 5%.
`CCOC(=O)C=C(C=CC1(O)C(C)=CC(=O)CC1(C)C)C(C)C` (centres unmarked) [I.1-86]: the “EF (TRZAS), efficacy = percentage reduction in the intensity of damage” value in the experiment on Triticum aestivum (dosage 250 g/ha) is greater than 5%.
For `CCOC(=O)C=C(C=CC1(O)C(C)=CC(=O)CC1(C)C)C(C)(C)C` (centres unmarked) [I.1-92], in the experiment with Triticum aestivum (dosage 250 g/ha), the “EF (TRZAS), efficacy = percentage reduction in the intensity of damage” value is given as greater than 5%. Further, the “EF (ZEAMX), efficacy = percentage reduction in the intensity of damage” value with Zea mays (dosage 250 g/ha) is reported as greater than 5%.
Turning to `CCOC(=O)C=C(C#CC1(O)C(C)=CC(=O)CC1(C)C)C1CC1` (centres unmarked) [I.1-114], the “EF (BRSNS), efficacy = percentage reduction in the intensity of damage” value in the experiment with Brassica napus (dosage 250 g/ha) is greater than 5%. In the experiment on Triticum aestivum (dosage 250 g/ha), the “EF (TRZAS), efficacy = percentage reduction in the intensity of damage” value is reported as greater than 5%.
In the case of `CCOC(=O)C=C(C=CC1(O)C(C)=CC(=O)CC1(C)C)C1CC1` (centres unmarked) [I.1-116], the “EF (BRSNS), efficacy = percentage reduction in the intensity of damage” value with Brassica napus (dosage 250 g/ha) was greater than 5%. Also, the “EF (TRZAS), efficacy = percentage reduction in the intensity of damage” value with Triticum aestivum (dosage 250 g/ha) is greater than 5%.
Regarding `CCOC(=O)C=C(C#CC1(O)C(C)=CC(=O)CC1(C)C)C1CCCC1` (centres unmarked) [I.1-122], the “EF (TRZAS), efficacy = percentage reduction in the intensity of damage” value with Triticum aestivum (dosage 25 g/ha) is greater than 5%.
Consider `CCOC(=O)C=C(C=CC1(O)C(C)=CC(=O)CC1(C)C)C1CCCC1` (centres unmarked) [I.1-124], for which, in the experiment on Triticum aestivum (dosage 250 g/ha), the “EF (TRZAS), efficacy = percentage reduction in the intensity of damage” value is greater than 5%.
Consider `CCC(C#CC1(O)C(C)=CC(=O)CC1(C)C)=CC(=O)OC` (centres unmarked) [I.1-142], for which the “EF (BRSNS), efficacy = percentage reduction in the intensity of damage” value in the experiment on Brassica napus (dosage 250 g/ha) is recorded as greater than 5%. Besides, the “EF (TRZAS), efficacy = percentage reduction in the intensity of damage” value with Triticum aestivum (dosage 250 g/ha) is reported as greater than 5%. In addition, the “EF (ZEAMX), efficacy = percentage reduction in the intensity of damage” value with Zea mays (dosage 250 g/ha) is listed as greater than 5%.
Turning to `CCC(C=CC1(O)C(C)=CC(=O)CC1(C)C)=CC(=O)OC` (centres unmarked) [I.1-144], the “EF (BRSNS), efficacy = percentage reduction in the intensity of damage” value in the experiment on Brassica napus (dosage 25 g/ha) is greater than 5%. Besides, in the experiment on Triticum aestivum (dosage 25 g/ha), the “EF (TRZAS), efficacy = percentage reduction in the intensity of damage” value is recorded as greater than 5%.
As to `CCC(C#CC1(O)C(C)=CC(=O)CC1(C)C)=CC(=O)NC(C)C` (centres unmarked) [I.2-14], the “EF (ZEAMX), efficacy = percentage reduction in the intensity of damage” value in the experiment on Zea mays (dosage 25 g/ha) is greater than 5%.
As to `CCC(C#CC1(O)C(C)=CC(=O)CC1(C)C)=CC(=O)NC1CC1` (centres unmarked) [I.2-18], in the experiment with Brassica napus (dosage 250 g/ha), the “EF (BRSNS), efficacy = percentage reduction in the intensity of damage” value is given as greater than 5%. For the same molecule, in the experiment with Zea mays (dosage 25 g/ha), the “EF (ZEAMX), efficacy = percentage reduction in the intensity of damage” value is greater than 5%.
